Source: ChEMBL document CHEMBL4000254, “Sodium Channel Blockers” (ACS Med Chem Lett, 2017)
pIC50: −log10 of the molar value.

What follows are compounds tested against Sodium channel protein type 9 subunit alpha (Homo sapiens, UniProt Q15858) (assay: Inhibition of human Nav1.7 expressed in HEK293 cells assessed as inhibition of peak current after 50 secs by automated patch clamp assay).
Format: cell-based

Chain of Sodium channel protein type 9 subunit alpha (Q15858 whole entry): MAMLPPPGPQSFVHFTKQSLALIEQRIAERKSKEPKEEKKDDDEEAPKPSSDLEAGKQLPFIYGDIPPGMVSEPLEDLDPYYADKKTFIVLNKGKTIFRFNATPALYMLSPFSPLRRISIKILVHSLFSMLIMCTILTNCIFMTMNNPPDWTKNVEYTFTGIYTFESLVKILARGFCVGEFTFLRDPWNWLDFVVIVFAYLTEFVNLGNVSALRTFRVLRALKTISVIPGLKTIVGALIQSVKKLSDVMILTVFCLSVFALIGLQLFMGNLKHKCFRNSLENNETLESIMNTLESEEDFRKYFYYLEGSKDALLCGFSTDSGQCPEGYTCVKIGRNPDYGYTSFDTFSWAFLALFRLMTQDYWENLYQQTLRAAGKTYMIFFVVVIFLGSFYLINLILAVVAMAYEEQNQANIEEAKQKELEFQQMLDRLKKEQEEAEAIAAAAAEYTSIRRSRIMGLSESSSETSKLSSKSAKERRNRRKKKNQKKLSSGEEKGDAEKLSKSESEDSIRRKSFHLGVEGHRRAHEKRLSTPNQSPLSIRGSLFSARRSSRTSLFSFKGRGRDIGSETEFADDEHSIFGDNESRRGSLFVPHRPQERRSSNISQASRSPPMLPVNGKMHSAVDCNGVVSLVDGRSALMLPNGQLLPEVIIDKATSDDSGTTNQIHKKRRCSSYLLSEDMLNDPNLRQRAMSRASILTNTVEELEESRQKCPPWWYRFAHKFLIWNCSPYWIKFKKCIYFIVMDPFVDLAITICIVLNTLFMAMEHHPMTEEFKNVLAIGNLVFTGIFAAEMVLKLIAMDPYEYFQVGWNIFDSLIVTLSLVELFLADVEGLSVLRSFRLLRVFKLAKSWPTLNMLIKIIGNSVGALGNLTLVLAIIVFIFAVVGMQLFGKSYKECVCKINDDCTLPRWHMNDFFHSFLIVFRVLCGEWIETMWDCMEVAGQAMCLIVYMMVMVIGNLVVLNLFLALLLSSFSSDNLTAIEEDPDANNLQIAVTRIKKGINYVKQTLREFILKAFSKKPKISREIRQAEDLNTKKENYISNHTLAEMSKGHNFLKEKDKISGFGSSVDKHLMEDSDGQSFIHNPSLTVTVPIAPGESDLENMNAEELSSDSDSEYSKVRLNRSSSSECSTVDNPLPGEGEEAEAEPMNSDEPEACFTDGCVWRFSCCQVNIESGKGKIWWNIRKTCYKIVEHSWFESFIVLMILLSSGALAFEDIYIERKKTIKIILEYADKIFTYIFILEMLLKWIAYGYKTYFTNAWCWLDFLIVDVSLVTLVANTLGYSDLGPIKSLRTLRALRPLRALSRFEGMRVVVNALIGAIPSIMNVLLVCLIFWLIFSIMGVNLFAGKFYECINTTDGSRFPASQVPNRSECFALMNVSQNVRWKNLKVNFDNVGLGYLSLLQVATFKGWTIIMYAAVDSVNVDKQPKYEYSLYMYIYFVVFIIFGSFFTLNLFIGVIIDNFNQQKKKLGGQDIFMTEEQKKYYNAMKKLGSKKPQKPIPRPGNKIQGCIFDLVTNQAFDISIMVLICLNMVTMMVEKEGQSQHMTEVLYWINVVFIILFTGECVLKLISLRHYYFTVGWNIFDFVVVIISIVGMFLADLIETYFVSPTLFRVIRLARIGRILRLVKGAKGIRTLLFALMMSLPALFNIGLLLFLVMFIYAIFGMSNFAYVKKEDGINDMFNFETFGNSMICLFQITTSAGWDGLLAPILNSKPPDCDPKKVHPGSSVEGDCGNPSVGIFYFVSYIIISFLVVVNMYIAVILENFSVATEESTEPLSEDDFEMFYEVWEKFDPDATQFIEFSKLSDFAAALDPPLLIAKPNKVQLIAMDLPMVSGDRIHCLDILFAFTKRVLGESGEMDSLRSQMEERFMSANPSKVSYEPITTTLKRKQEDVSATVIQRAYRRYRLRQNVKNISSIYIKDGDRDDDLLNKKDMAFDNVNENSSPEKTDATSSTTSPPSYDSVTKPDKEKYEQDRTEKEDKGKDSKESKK

| pIC50 | SMILES |
| --- | --- |
| 7.10 | COc1cccc(-c2ccc3c(c2)c(F)nn3-c2cc(F)c(C(=O)NS(C)(=O)=O)cc2Cl)c1 |
| 7.10 | Cc1cccc(-c2ccc3c(c2)c(F)nn3-c2cc(F)c(C(=O)NS(C)(=O)=O)cc2Cl)c1 |
| 7.15 | CS(=O)(=O)NC(=O)c1cc(Cl)c(-n2nc(Cl)c3cc(-c4cccc(Cl)c4F)ccc32)cc1F |
| 8.12 | CS(=O)(=O)NC(=O)c1cc(Cl)c(-n2nc(Cl)c3cc(OCc4ccc5ccccc5c4)ccc32)cc1F |
| 7.40 | CS(=O)(=O)NC(=O)c1cc(Cl)c(-n2cc(F)c3cc(-c4cccc(Cl)c4F)cnc32)cc1F |
| 7.30 | CS(=O)(=O)NC(=O)c1cc(Cl)c(-n2cc(F)c3cc(-c4ccc(C(F)(F)F)cc4)cnc32)cc1F |
| 7.15 | CS(=O)(=O)NC(=O)c1cc(Cl)c(-n2ncc3cc(-c4ccc(Cl)cc4F)ccc32)cc1F |
| 7.40 | CS(=O)(=O)NC(=O)c1cc(Cl)c(-n2cc(Cl)c3cc(-c4ccc(F)cc4Cl)cnc32)cc1F |
| 7.05 | Cc1cc(F)ccc1-c1cnc2c(c1)c(Cl)cn2-c1cc(F)c(C(=O)NS(C)(=O)=O)cc1Cl |
| 7.22 | Cc1ccccc1-c1ccc2c(c1)c(F)nn2-c1cc(F)c(C(=O)NS(C)(=O)=O)cc1Cl |
| 7.10 | CS(=O)(=O)NC(=O)c1cc(Cl)c(-n2nc(Cl)c3cc(-c4ccc(Cl)c(F)c4)ccc32)cc1F |
| 7.05 | CS(=O)(=O)NC(=O)c1cc(Cl)c(-n2nc(F)c3cc(-c4cccc(F)c4)ccc32)cc1F |
| 7.05 | CS(=O)(=O)NC(=O)c1cc(Cl)c(-n2nc(Cl)c3cc(-c4cc(F)ccc4F)ccc32)cc1F |
| 7.40 | CS(=O)(=O)NC(=O)c1cc(Cl)c(-n2nc(F)c3cc(-c4cccc(Cl)c4)ccc32)cc1F |
| 7.41 | Cc1cccc(-c2ccc3c(c2)c(Cl)nn3-c2cc(F)c(C(=O)NS(C)(=O)=O)cc2Cl)c1 |
| 7.70 | CS(=O)(=O)NC(=O)c1cc(Cl)c(-n2nc(Cl)c3cc(-c4cc(F)c(F)c(F)c4)ccc32)cc1F |
| 7.15 | CS(=O)(=O)NC(=O)c1cc(Cl)c(-n2ncc3cc(-c4cccc(Cl)c4)ccc32)cc1F |
| 7.30 | CS(=O)(=O)NC(=O)c1cc(Cl)c(-n2cc(Cl)c3cc(-c4ccc(C(F)(F)F)cc4)cnc32)cc1F |
| 7.30 | CS(=O)(=O)NC(=O)c1cc(Cl)c(-n2cc(F)c3cc(-c4cccc(Cl)c4)cnc32)cc1F |
| 7.10 | CS(=O)(=O)NC(=O)c1cc(Cl)c(-n2nc(Cl)c3cc(-c4ccc(OC(F)(F)F)cc4)ccc32)cc1F |
| 7.10 | CS(=O)(=O)NC(=O)c1cc(Cl)c(-n2cc(Cl)c3cc(-c4ccc(F)cc4F)cnc32)cc1F |
